Test: xn = mol fraction of the nth substance listed
Details: 101 kPa, Liquid; for viscosity: Anton Paar Stabinger viscometer

COc1ccccc1 [anisole] + Cc1ccccc1
Details | mass density [kg/m3] | speed of sound [m/s] | viscosity [mPa·s]
288.15 K, x1 = 0.1152 | 886.478 | 1360.7 | 0.676
288.15 K, x1 = 0.2132 | 899.203 | 1369.9 | 0.725
288.15 K, x1 = 0.3098 | 911.684 | 1379.1 | 0.77
288.15 K, x1 = 0.4182 | 925.577 | 1389.6 | 0.832
288.15 K, x1 = 0.5267 | 939.392 | 1400.4 | 0.891
288.15 K, x1 = 0.6209 | 951.306 | 1410 | 0.94
288.15 K, x1 = 0.7382 | 966.034 | 1421.9 | 1.014
288.15 K, x1 = 0.8645 | 981.766 | 1434.9 | 1.094
288.15 K, x1 = 0.927 | 989.474 | 1441.5 | 1.138
288.15 K, x1 = 1 | 998.441 | 1449.1 | 1.188
293.15 K, x1 = 0.1152 | 881.927 | 1339.1 | 0.628
293.15 K, x1 = 0.2132 | 894.629 | 1347.9 | 0.671
293.15 K, x1 = 0.3098 | 907.078 | 1357.9 | 0.71
293.15 K, x1 = 0.4182 | 920.94 | 1367.2 | 0.765
293.15 K, x1 = 0.5267 | 934.732 | 1377.6 | 0.818
293.15 K, x1 = 0.6209 | 946.626 | 1387.6 | 0.861
293.15 K, x1 = 0.7382 | 961.327 | 1398.7 | 0.927
293.15 K, x1 = 0.8645 | 977.029 | 1412.5 | 0.999
293.15 K, x1 = 0.927 | 984.734 | 1418.9 | 1.039
293.15 K, x1 = 1 | 993.653 | 1428.5 | 1.084
298.15 K, x1 = 0.1152 | 877.272 | 1316.5 | 0.594
298.15 K, x1 = 0.2132 | 889.988 | 1325.8 | 0.634
298.15 K, x1 = 0.3098 | 902.448 | 1335 | 0.67
298.15 K, x1 = 0.4182 | – | 1345.3 | 0.721
298.15 K, x1 = 0.5267 | 930.133 | 1356.5 | 0.769
298.15 K, x1 = 0.6209 | 942.044 | 1366.3 | 0.809
298.15 K, x1 = 0.7382 | 956.777 | 1378.8 | 0.871
298.15 K, x1 = 0.8645 | 972.508 | 1392.7 | 0.94
298.15 K, x1 = 0.927 | 980.221 | 1399.6 | 0.977
298.15 K, x1 = 1 | 989.15 | 1408 | 1.017
303.15 K, x1 = 0.1152 | 872.541 | 1295.1 | 0.557
303.15 K, x1 = 0.2132 | 885.247 | 1304.8 | 0.592
303.15 K, x1 = 0.3098 | 897.698 | 1314.4 | 0.623
303.15 K, x1 = 0.4182 | 911.571 | 1325.3 | 0.667
303.15 K, x1 = 0.5267 | 925.369 | 1336.5 | 0.709
303.15 K, x1 = 0.6209 | 937.281 | 1346.4 | 0.745
303.15 K, x1 = 0.7382 | 952.012 | 1358.8 | 0.802
303.15 K, x1 = 0.8645 | 967.753 | 1372.5 | 0.862
303.15 K, x1 = 0.927 | 975.465 | 1379.4 | 0.895
303.15 K, x1 = 1 | 984.374 | 1387.7 | 0.931

COc1ccccc1 [anisole] + Cc1ccccc1C
Details | mass density [kg/m3] | speed of sound [m/s] | viscosity [mPa·s]
288.15 K, x1 = 0.0915 | 893.348 | 1395 | 0.885
288.15 K, x1 = 0.198 | 905.888 | 1402.3 | 0.914
288.15 K, x1 = 0.368 | 924.439 | 1409 | 0.944
288.15 K, x1 = 0.4954 | 938.936 | 1415.7 | 0.979
288.15 K, x1 = 0.6554 | 957.421 | 1424.7 | 1.028
288.15 K, x1 = 0.766 | 970.279 | 1431.2 | 1.066
288.15 K, x1 = 0.868 | 982.607 | 1439.4 | 1.133
288.15 K, x1 = 0.916 | 988.769 | 1444.5 | 1.159
288.15 K, x1 = 0.949 | 992.756 | 1447.1 | 1.172
288.15 K, x1 = 1 | 998.44 | 1449.1 | 1.188
293.15 K, x1 = 0.0915 | 889.076 | 1374.4 | 0.821
293.15 K, x1 = 0.198 | 900.83 | 1381.7 | 0.844
293.15 K, x1 = 0.368 | 919.973 | 1388.3 | 0.868
293.15 K, x1 = 0.4954 | 934.513 | 1394.9 | 0.899
293.15 K, x1 = 0.6554 | 953.102 | 1403.9 | 0.942
293.15 K, x1 = 0.766 | 966.072 | 1410.4 | 0.975
293.15 K, x1 = 0.868 | 978.09 | 1418.6 | 1.035
293.15 K, x1 = 0.916 | 983.748 | 1424 | 1.058
293.15 K, x1 = 0.949 | 987.635 | 1426.6 | 1.072
293.15 K, x1 = 1 | 993.649 | 1428.5 | 1.084
298.15 K, x1 = 0.0915 | 885.509 | 1354 | 0.769
298.15 K, x1 = 0.198 | 897.159 | 1359.5 | 0.79
298.15 K, x1 = 0.368 | 916.136 | 1368.6 | 0.813
298.15 K, x1 = 0.4954 | 930.569 | 1375.7 | 0.841
298.15 K, x1 = 0.6554 | 948.998 | 1385.1 | 0.881
298.15 K, x1 = 0.766 | 961.882 | 1391.9 | 0.914
298.15 K, x1 = 0.868 | 973.792 | 1398.6 | 0.974
298.15 K, x1 = 0.916 | 979.418 | 1402 | 0.996
298.15 K, x1 = 0.949 | 983.27 | 1404.3 | 1.005
298.15 K, x1 = 1 | 989.104 | 1408 | 1.017
303.15 K, x1 = 0.0915 | 880.756 | 1333.4 | 0.718
303.15 K, x1 = 0.198 | 892.435 | 1339.3 | 0.735
303.15 K, x1 = 0.368 | 911.407 | 1348.8 | 0.753
303.15 K, x1 = 0.4954 | 925.824 | 1355.9 | 0.776
303.15 K, x1 = 0.6554 | 944.269 | 1365.2 | 0.811
303.15 K, x1 = 0.766 | 957.177 | 1371.8 | 0.84
303.15 K, x1 = 0.868 | 969.125 | 1378.1 | 0.893
303.15 K, x1 = 0.916 | 974.761 | 1381.2 | 0.912
303.15 K, x1 = 0.949 | 978.63 | 1383.3 | 0.922
303.15 K, x1 = 1 | 984.372 | 1386.7 | 0.931

COc1ccccc1 [anisole] + c1ccccc1
Details | mass density [kg/m3] | speed of sound [m/s] | viscosity [mPa·s]
288.15 K, x1 = 0.097 | 897.546 | 1356.8 | 0.747
288.15 K, x1 = 0.175 | 907.884 | 1364.5 | 0.777
288.15 K, x1 = 0.274 | 920.511 | 1374.4 | 0.817
288.15 K, x1 = 0.368 | 932.009 | 1383.8 | 0.856
288.15 K, x1 = 0.4971 | 947.045 | 1395.2 | 0.915
288.15 K, x1 = 0.623 | 960.925 | 1406.8 | 0.976
288.15 K, x1 = 0.72 | 971.118 | 1418.4 | 1.027
288.15 K, x1 = 0.8003 | 979.257 | 1425.2 | 1.072
288.15 K, x1 = 0.8895 | 988.004 | 1437.5 | 1.126
288.15 K, x1 = 1 | 998.441 | 1449.1 | 1.188
293.15 K, x1 = 0.097 | 890.999 | 1333 | 0.683
293.15 K, x1 = 0.175 | 901.497 | 1340.7 | 0.71
293.15 K, x1 = 0.274 | 914.322 | 1350.8 | 0.746
293.15 K, x1 = 0.368 | 926.005 | 1360.5 | 0.781
293.15 K, x1 = 0.4971 | 941.295 | 1373.9 | 0.833
293.15 K, x1 = 0.623 | 955.425 | 1387.2 | 0.889
293.15 K, x1 = 0.72 | 965.807 | 1397.5 | 0.936
293.15 K, x1 = 0.8003 | 974.102 | 1406.1 | 0.978
293.15 K, x1 = 0.8895 | 983.017 | 1415.9 | 1.027
293.15 K, x1 = 1 | 993.649 | 1428.5 | 1.084
298.15 K, x1 = 0.097 | 887.083 | 1309.3 | 0.638
298.15 K, x1 = 0.175 | 897.532 | 1317 | 0.664
298.15 K, x1 = 0.274 | 910.286 | 1327.1 | 0.697
298.15 K, x1 = 0.368 | 921.904 | 1337 | 0.73
298.15 K, x1 = 0.4971 | 937.104 | 1350.8 | 0.779
298.15 K, x1 = 0.623 | 951.156 | 1364.6 | 0.831
298.15 K, x1 = 0.72 | 961.483 | 1375.5 | 0.877
298.15 K, x1 = 0.8003 | 969.734 | 1384.6 | 0.918
298.15 K, x1 = 0.8895 | 978.597 | 1394.8 | 0.963
298.15 K, x1 = 1 | 989.15 | 1408 | 1.017
303.15 K, x1 = 0.097 | 881.745 | 1286.9 | 0.601
303.15 K, x1 = 0.175 | 892.244 | 1295.4 | 0.623
303.15 K, x1 = 0.274 | 905.059 | 1306.3 | 0.651
303.15 K, x1 = 0.368 | 916.731 | 1316.6 | 0.679
303.15 K, x1 = 0.4971 | 932.013 | 1330.9 | 0.72
303.15 K, x1 = 0.623 | 946.146 | 1345 | 0.767
303.15 K, x1 = 0.72 | 956.542 | 1355.8 | 0.808
303.15 K, x1 = 0.8003 | 964.845 | 1364.9 | 0.844
303.15 K, x1 = 0.8895 | 973.764 | 1375.1 | 0.883
303.15 K, x1 = 1 | 984.374 | 1387.7 | 0.931
